From patent US11598051B2, “Method for manufacturing a fibrous web” (Kemira Oyj, priority 2017, dated 2023)

Legend:
[1] = system: aerobic bacterial spores; test: Example 3 board machine biocide programs: aerobic bacterial spores from process locations; set-up: species or system bacteria; details: for ΔSpore content within the broke system: difference between inlet and outlet
Excerpt: (§1) This example compares technical performance of two different biocide programs in the broke system of a 3-ply board machine producing food-packaging board. Broke system is a part of the wet-end of the board making process. This board machine has set a hygiene target for the final board that it should contain aerobic bacterial spores less than 1000 CFU, and preferably less than 250 CFU, per gram of dry board.
(§2) In this experiment, for the first period (Days 1-10) the machine was running a biocide program consisting of stabilized active chlorine (MCDMH) and glutaraldehyde. For the second period, the machine was running chlorine dioxide, a non-stabilized oxidizer, as the biocide. It was running for 10 days starting from a shutdown (Days 15-25). Third period (Days 26-47) was run with the same MCDMH and glutaraldehyde program as the first period. During this experiment technical performance of the two different biocide programs was monitored at selected dates by several means: on-line Redox monitoring system collecting Redox values at every 10 minutes (results are shown as daily average mV values); measuring aerobic spore content of the final board samples; and by measuring aerobic bacterial spore quantities from different process locations by using agar plate cultivation methods (pasteurization at 82° C. for 20 min, followed by cultivation on Plate Count Agar for 2 days at +37° C.).

[2] = system: aerobic bacterial spores; test: Example 3 board machine biocide programs: aerobic spore content of final board; set-up: species or system bacteria
Excerpt: as §1, §2

[3] = system: Total aerobic bacteria (authentic bacterial population of a broke sample); test: Example 1 laboratory broke test: total aerobic bacteria by agar plate cultivation; format: cell-based; details: for Total aerobic bacteria: 10 mg/l as total active chlorine, +45° C.
Procedure: (§3) This laboratory test compared efficacy of two oxidizing biocides, namely free active chlorine and stabilized active chlorine, in killing of vegetative bacterial cells and in controlling of bacterial spore formation. Test was performed with authentic bacterial population of a broke sample taken from couch pit of a board machine making 3-ply food-packaging board. Broke sample was divided in equal proportions. Two reference samples were stored as such, the “free active chlorine” sample was treated with sodium hypochlorite, and the “stabilized active chlorine” sample was treated with sodium hypochlorite stabilized by 5,5-dimethylhydantoin (mixed in 1:1 molar ratio to form monochloro-5,5-dimethylhydantoin, MCDMH). Both forms of active chlorine were dosed at 10 ppm (=mg/l as total active chlorine Cl2). Broke samples were stored at +45° C. without mixing. Total aerobic bacteria and aerobic bacterial spores were quantified by using conventional agar plate cultivation methods (Plate Count Agar, incubation at +37° C. for 2 days) at the beginning of the test (untreated reference samples) and after 1 and 2 days of contact time. Broke pH and Redox (mV) values were also monitored.

[4] = system: aerobic bacterial spores; test: Example 1 laboratory broke test: aerobic bacterial spores by agar plate cultivation; format: cell-based, bacteria; details: for Bacterial spores: 10 mg/l as total active chlorine, +45° C.
Procedure: as §3

[5] = system: Total aerobic bacteria (mill's authentic bacterial population); test: Example 2 laboratory broke storage test: total aerobic bacteria by agar plate cultivation; format: cell-based
Procedure: (§4) This laboratory test was performed with broke sample taken from an alkaline board machine producing 3-ply food-packaging board and the sample included the mill's authentic bacterial population in it. The sample was divided in two different containers, one stored as such and the second one amended with biocide, 50 mg/l of glutaraldehyde as active agent. Containers were closed and stored at +45° C. without mixing i.e. under conditions that simulate situation in broke storage tower during a machine shutdown. Total aerobic bacteria and aerobic spore contents were determined by using conventional agar plate cultivation methods (plate count agar, 2 days incubation at +37° C.) at the beginning of the test and after 3 days of storage time, along with pH and redox measurements.

[6] = system: aerobic spores; test: Example 2 laboratory broke storage test: aerobic spore content by agar plate cultivation; format: cell-based, bacteria
Procedure: as §4

[7] = Day 15, second period (Days 15-25)
[8] = Day 19, second period (Days 15-25)
[9] = Day 25, second period (Days 15-25)
[10] = broke, 50 mg/l as active agent, +45° C., closed, after 3 days storage time

`[O][Cl+][O-]` [chlorine dioxide] was tested, and the “Aerobic Bacterial Spores in process, High consistency (4-6 w/w-%) broke tower” value [1, 7] was 440 CFU/ml, the “Aerobic Bacterial Spores in process, Incoming Pulp” value [1, 7] was 20 CFU/ml and the “Aerobic Bacterial Spores in process, Low consistency (1-4 w/w-%) broke tower” value [1, 7] was 250 CFU/ml. For the same compound, the “ΔSpore content within the broke system” value ([1]; Day 15, second period) was “+190 CFU/ml”, the “Aerobic Bacterial Spores in process, High consistency (4-6 w/w-%) broke tower” value [1, 8] was 1100 CFU/ml and the “Aerobic Bacterial Spores in process, Incoming Pulp” value [1, 8] was 60 CFU/ml. The “Aerobic Bacterial Spores in process, Low consistency (1-4 w/w-%) broke tower” value [1, 8] was 610 CFU/ml, the “ΔSpore content within the broke system” value ([1]; Day 19, second period) was “+490 CFU/ml” and the “Aerobic Bacterial Spores in process, High consistency (4-6 w/w-%) broke tower” value [1, 9] was 950 CFU/ml. For the same compound, the “Aerobic Bacterial Spores in process, Low consistency (1-4 w/w-%) broke tower” value [1, 9] was 850 CFU/ml, the “ΔSpore content within the broke system” value ([1]; Day 25, second period) was “+100 CFU/ml” and the “spore formation in the broke system” value ([1]; second period (Days 15-25)) was “triggered intensive spore formation”. For the same compound, the “spore quantities in the high consistency broke tower” value ([1]; second period (Days 15-25), maximum) was “up to 1100 CFU/ml”, the “Bacterial Spores in Final Board” value [2, 7] was 520 CFU/g and the “Bacterial Spores in Final Board” value [2, 8] was 5530 CFU/g. For the same compound, the “Bacterial Spores in Final Board” value ([2]; Day 21, second period (Days 15-25)) was 9580 CFU/g, the “Bacterial Spores in Final Board” value [2, 9] was 3210 CFU/g and the “spore content in the final board, highest value” ([2]; second period (Days 15-25)) was no more than 9580 CFU/g.

`[Na+].[O-]Cl` [Na-hypochlorite, sodium hypochlorite] was tested, and the Total aerobic bacteria ([3]; broke, 1 days storage time) was 4 × 10^5 CFU/ml, the Total aerobic bacteria ([3]; broke, 2 days storage time) was 2 × 10^7 CFU/ml and the “killing effect” value ([3]; broke, 10 ppm dosing level) was “did not demonstrate any longer-term killing effect”. The “total aerobic bacteria content” value ([3]; broke, 10 ppm, after 1 day of storage) was 4×10^5 CPU/ml, the Bacterial spores ([4]; 1 days storage time) was 60 CFU/ml and the Bacterial spores ([4]; 2 days storage time) was 670 CFU/ml. For the same compound, the “increase in the quantity of aerobic spores” value ([4]; 10 ppm, 1 day to 2 days storage (60 to 670 CFU/ml)) was 10 fold.

In the case of `O=CCCCC=O` [glutaraldehyde], the “killing effect” value ([5]; 50 mg/l, 3 days of storage) is reported as “did not have a long-lasting killing effect”, the “total aerobic bacteria relative to the untreated reference” value ([5]; 50 mg/l, after 3 days of storage) is reported as 40% and the Total aerobic bacteria [5, 10] is reported as 2×10^7 CFU/ml. For the same compound, the “spore formation in the broke sample” value ([6]; 50 mg/l, 3 days of storage) was “not triggering any spore formation” and the Bacterial spores [6, 10] was 80 CFU/ml.

`CC1(C)NC(=O)N(Cl)C1=O` [MCDMH, monochloro-5,5-dimethylhydantoin] was tested, and the “spores in incoming pulp” value ([1]; first period (Days 1-10)) was 30-80 CFU/ml, the “spores in pulp transportation water” value ([1]; first period (Days 1-10)) was 15 CFU/ml and the “stronger reduction of total aerobic bacteria content compared to free chlorine” value ([3]; 10 mg/l as active chlorine, after 1 day of storage) was 1 log unit. For the same compound, the Total aerobic bacteria ([3]; broke, 1 days storage time) was 6×10^4 CFU/ml, the Total aerobic bacteria ([3]; broke, 2 days storage time) was 2 × 10^7 CFU/ml and the “spore formation in the broke” value ([4]; 10 mg/l as active chlorine, 2 days experiment) was “did not cause any new spore formation”. For the same compound, the spore counts ([4]; 10 mg/l as active chlorine, during the 2 days experiment) was 30-60 CPU/ml, the Bacterial spores ([4]; 1 days storage time) was 30 CFU/ml and the Bacterial spores ([4]; 2 days storage time) was 60 CFU/ml.
